Results reported in article PMC11031283 (ACS synthetic biology, 2024).

Target: EncM (Streptomyces maritimus, UniProt Q9KHK2)
Assay: LC-MS product formation, low activity
Format: biochemical
Details: in vitro purified enzyme; not detected in lysate

Q: For `CCCCCc1cc(O)c(C/C=C(\C)CCC=C(C)C)c(O)c1C(=O)O` [compound 3, cannabigerolic acid], which “LC-MS product formation, low activity” value is on record?
A: several other enzymes had low activity not detected in lysate assays, including EncM
